# Results published in article PMC4786259 (PLoS ONE, 2016).
# Assays:
# D5 = D5 (Homo sapiens, UniProt P21918); assay: PDSP radioligand competition binding; settings: radioligand [^3H]SCH23390
# 5-HT1A = molecular target: T1, 5-HT1A (Homo sapiens, UniProt P08908); assay: PDSP radioligand competition binding; settings: radioligand [^3H]WAY100635; read-out: In Vitro Affinity
# T1 construct: expressed in transfected cells
# T1 sequence (P08908 1-422): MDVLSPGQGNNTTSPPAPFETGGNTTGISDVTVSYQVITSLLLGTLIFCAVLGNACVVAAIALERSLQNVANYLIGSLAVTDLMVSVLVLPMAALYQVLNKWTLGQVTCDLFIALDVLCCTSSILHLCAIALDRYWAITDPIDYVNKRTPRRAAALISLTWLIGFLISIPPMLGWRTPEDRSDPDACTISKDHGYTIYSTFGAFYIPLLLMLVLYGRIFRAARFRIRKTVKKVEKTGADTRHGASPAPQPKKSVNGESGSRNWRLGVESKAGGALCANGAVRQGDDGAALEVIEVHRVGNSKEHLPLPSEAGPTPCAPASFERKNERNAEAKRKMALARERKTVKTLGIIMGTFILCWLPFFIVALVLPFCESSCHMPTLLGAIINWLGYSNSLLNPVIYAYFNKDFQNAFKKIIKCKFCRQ
# 5-HT7 [1] = molecular target: T2, 5-HT7 (Homo sapiens, UniProt P34969); assay: PDSP radioligand competition binding; settings: radioligand [^3H]LSD; read-out: In Vitro Affinity
# T2 construct: expressed in transfected cells
# T2 sequence (P34969 whole entry, species assumed): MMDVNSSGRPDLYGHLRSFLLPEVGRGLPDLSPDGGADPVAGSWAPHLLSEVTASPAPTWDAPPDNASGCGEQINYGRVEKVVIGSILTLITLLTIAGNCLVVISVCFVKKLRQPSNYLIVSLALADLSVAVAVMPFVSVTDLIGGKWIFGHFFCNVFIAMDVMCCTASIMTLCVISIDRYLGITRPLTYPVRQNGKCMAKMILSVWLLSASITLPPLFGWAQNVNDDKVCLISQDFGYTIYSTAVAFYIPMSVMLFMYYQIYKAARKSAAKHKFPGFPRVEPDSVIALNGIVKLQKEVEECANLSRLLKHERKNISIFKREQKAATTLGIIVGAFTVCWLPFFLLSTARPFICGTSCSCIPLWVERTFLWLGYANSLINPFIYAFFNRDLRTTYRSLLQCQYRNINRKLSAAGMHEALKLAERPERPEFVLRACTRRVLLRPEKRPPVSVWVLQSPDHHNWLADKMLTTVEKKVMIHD
# 5-HT6 [2] = molecular target: T3, 5-HT6 (Homo sapiens, UniProt P50406); assay: PDSP radioligand competition binding; settings: radioligand [^3H]LSD; read-out: In Vitro Affinity
# T3 construct: expressed in transfected cells
# T3 sequence (P50406 whole entry, species assumed): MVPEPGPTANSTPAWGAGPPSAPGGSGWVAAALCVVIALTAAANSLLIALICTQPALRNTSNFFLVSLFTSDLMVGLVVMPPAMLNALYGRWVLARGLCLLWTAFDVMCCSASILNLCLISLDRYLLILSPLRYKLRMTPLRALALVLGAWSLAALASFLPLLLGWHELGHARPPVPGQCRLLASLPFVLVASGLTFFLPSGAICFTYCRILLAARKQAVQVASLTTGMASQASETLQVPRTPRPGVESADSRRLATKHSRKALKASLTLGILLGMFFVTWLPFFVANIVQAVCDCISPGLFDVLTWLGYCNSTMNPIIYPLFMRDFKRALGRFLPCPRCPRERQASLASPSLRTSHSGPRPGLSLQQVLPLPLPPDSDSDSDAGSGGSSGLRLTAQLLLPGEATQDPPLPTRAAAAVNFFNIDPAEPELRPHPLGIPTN
# 5-HT1D = 5-HT1D (Homo sapiens, UniProt P28221); assay: PDSP radioligand competition binding; settings: radioligand [^3H]5-CT; read-out: In vitro Affinity
# α1A = α1A (Homo sapiens, UniProt P35348); assay: PDSP radioligand competition binding; settings: radioligand [^3H]Prazosin; read-out: In vitro Affinity
# α1A, sequence (P35348 whole entry): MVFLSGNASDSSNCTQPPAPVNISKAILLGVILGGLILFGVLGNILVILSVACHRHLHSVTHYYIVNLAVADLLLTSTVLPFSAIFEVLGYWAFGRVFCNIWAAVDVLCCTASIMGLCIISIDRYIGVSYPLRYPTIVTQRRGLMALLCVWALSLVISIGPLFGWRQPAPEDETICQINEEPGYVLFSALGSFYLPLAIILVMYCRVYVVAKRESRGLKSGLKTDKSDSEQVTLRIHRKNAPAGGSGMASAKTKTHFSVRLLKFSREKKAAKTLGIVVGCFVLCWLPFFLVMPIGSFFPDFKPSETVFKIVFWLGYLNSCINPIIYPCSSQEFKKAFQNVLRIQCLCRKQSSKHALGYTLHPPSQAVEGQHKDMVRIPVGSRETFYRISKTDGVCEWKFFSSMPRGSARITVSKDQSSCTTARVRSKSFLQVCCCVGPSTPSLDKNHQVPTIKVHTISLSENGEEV
# α1B = α1B (Homo sapiens, UniProt P35368); assay: PDSP radioligand competition binding; settings: radioligand [^3H]Prazosin; read-out: In vitro Affinity
# α2C = α2C (Homo sapiens, UniProt P18825); assay: PDSP radioligand competition binding; settings: radioligand [^3H]Rauwolscine; read-out: In vitro Affinity
# α2C, sequence (P18825 whole entry): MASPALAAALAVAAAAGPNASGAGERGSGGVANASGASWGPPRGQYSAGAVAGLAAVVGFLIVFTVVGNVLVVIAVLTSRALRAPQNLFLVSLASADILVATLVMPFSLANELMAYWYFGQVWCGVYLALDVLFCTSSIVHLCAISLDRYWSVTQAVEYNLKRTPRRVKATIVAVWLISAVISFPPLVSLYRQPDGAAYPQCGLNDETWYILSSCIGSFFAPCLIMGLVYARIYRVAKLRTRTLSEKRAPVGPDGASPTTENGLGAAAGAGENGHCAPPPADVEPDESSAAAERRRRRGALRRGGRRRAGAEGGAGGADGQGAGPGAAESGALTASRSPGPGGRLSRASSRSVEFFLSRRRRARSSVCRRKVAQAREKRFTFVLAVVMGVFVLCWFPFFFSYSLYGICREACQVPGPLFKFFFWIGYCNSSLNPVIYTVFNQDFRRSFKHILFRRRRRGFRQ
# β1-AR = β1-AR (Homo sapiens, UniProt P08588); assay: PDSP radioligand competition binding; settings: radioligand [^3H]CGP12177; read-out: In vitro Affinity
# β1-AR, sequence (P08588 whole entry): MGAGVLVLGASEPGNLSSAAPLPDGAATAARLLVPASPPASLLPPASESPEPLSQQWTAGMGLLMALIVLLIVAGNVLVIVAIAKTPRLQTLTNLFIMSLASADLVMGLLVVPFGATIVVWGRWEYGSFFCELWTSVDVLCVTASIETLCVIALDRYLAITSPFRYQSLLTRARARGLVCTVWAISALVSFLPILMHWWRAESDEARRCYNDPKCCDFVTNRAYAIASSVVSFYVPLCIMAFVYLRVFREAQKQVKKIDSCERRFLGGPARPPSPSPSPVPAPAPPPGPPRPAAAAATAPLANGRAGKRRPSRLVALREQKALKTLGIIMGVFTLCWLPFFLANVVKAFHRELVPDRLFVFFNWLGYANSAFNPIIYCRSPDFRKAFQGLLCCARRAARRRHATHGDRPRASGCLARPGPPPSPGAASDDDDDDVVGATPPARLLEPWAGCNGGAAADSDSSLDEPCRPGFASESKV
# MOR = MOR (Homo sapiens, UniProt P35372); assay: PDSP radioligand competition binding; settings: radioligand [^3H]DAMGO; read-out: In vitro Affinity
# 5-HT5A = 5-HT5A (Homo sapiens, UniProt P47898); assay: PDSP radioligand competition binding; settings: radioligand [^3H]LSD; read-out: In vitro Affinity
# 5-HT7 [3] = molecular target: T2, 5-HT7; assay: PDSP receptor functional assay; assay type: cell-based
# 5-HT2A = molecular target: T4, 5-HT2A (Homo sapiens, UniProt P28223); assay: PDSP receptor functional assay; assay type: cell-based
# T4 construct: expressed in transfected cells
# T4 sequence (P28223 whole entry, looked up): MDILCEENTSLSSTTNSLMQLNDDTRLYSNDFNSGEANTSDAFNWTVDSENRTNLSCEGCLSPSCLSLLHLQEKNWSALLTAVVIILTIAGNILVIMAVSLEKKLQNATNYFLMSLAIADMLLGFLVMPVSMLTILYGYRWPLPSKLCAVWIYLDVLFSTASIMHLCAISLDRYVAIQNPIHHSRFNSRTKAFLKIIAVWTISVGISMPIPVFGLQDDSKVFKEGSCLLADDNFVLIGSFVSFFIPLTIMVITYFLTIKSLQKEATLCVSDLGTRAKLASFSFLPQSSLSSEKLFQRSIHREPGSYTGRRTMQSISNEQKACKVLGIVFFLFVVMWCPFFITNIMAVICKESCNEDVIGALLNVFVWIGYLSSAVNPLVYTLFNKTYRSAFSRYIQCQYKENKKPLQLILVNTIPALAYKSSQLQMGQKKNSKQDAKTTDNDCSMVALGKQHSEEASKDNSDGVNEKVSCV
# 5-HT2B = molecular target: T5, 5-HT2B (Homo sapiens, UniProt P41595); assay: PDSP receptor functional assay; assay type: cell-based
# T5 construct: expressed in transfected cells
# T5 sequence (P41595 whole entry, species assumed): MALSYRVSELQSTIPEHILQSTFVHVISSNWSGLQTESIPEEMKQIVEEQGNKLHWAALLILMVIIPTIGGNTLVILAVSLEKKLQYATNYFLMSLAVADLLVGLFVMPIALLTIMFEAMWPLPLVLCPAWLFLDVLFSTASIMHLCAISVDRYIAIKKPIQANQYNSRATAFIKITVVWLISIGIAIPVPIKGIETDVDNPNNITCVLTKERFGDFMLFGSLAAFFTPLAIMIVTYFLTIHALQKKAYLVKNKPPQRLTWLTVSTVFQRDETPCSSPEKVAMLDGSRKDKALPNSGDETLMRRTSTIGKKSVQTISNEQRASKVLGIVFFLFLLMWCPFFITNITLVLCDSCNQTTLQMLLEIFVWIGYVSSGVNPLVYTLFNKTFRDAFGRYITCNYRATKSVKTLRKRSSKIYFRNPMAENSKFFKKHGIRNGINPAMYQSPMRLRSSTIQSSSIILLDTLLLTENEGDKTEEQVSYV
# 5-HT6 [4] = molecular target: T3, 5-HT6; assay: PDSP receptor functional assay; assay type: cell-based
# D4 = molecular target: T6, D4 (Homo sapiens, UniProt P21917); assay: PDSP receptor functional assay; assay type: cell-based
# T6 construct: expressed in transfected cells
# T6 sequence (P21917 1-419): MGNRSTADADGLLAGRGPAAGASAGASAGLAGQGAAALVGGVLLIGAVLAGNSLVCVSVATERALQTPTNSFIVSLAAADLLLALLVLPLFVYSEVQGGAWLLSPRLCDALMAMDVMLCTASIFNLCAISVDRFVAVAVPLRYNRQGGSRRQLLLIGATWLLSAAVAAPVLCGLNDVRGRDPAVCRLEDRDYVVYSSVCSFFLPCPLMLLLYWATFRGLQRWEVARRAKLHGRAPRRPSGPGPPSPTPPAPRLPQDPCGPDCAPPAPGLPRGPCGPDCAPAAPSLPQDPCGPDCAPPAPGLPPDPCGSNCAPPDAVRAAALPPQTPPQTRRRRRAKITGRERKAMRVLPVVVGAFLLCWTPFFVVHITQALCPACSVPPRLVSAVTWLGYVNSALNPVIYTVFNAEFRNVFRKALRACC
# hVMAT2 = molecular target: T7, hVMAT2 (Homo sapiens, UniProt Q05940); assay: Vesicular 3H-DA uptake in vesicles isolated from HEK cells overexpressing VMAT2; assay type: biochemical
# T7 construct: expressed in transfected cells; pcDNA3.1 construct with zeocin resistance
# T7 sequence (Q05940 whole entry): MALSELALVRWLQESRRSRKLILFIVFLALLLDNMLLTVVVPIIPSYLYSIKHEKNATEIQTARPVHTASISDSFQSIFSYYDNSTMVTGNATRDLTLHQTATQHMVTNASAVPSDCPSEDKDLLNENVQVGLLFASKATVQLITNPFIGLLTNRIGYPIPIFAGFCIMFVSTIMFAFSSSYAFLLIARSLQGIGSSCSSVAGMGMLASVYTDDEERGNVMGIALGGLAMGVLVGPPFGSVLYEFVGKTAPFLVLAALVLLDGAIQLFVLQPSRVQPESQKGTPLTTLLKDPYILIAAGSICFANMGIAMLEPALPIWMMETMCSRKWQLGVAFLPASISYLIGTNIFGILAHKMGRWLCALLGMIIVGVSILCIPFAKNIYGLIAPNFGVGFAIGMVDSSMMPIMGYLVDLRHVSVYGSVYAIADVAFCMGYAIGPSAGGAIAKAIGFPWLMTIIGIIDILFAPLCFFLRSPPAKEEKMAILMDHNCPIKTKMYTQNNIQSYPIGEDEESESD
# male C57BL/6J mice = assay: AMPH-induced hyperlocomotor activity (open field); assay type: in vivo; settings: 3 mg/kg pre-treatment, 3 mg/kg AMPH; between 35–50 min, vs amphetamine alone
# Experimental: Locomotor activity was assessed in AccuScan activity monitors (41X41X30 cm; AccuScan Instruments, Columbus, OH) with photocells spaced at 1.52 cm as described. In these monitors, the photocells create a grid of light beams, and breaks in the light beams (caused by the mouse) are recorded. The Accuscan software then calculates the total distance travelled (amongst other measurements) by analyzing the sequential order of beam breaks in the grid. Horizontal activity was measured as the total distance traveled in centimeters and was recorded in 5-minute bins. PCP-induced hyperlocomotor activity: mice (n = 16) previously acclimated to activity chambers were placed into the chambers for 15 minutes. […] Subsequently, mice were injected with 6.0 mg/kg PCP (i.p.) and returned to the chamber for 90 minutes. Induction of AMPH-induced hyperlocomotor activity followed an identical protocol except locomotor activity was recorded for a total of 75 minutes and 3 mg/kg AMPH was used (i.p.).
# C57BL/6J mice = assay: Prepulse inhibition, PCP-disrupted; assay type: in vivo
# [5] = rats; cited from earlier work
# hDAT = hDAT (Homo sapiens, UniProt Q01959); assay: Whole cell 3H-dopamine uptake in HEK-DAT cells
# hDAT, sequence (Q01959 whole entry): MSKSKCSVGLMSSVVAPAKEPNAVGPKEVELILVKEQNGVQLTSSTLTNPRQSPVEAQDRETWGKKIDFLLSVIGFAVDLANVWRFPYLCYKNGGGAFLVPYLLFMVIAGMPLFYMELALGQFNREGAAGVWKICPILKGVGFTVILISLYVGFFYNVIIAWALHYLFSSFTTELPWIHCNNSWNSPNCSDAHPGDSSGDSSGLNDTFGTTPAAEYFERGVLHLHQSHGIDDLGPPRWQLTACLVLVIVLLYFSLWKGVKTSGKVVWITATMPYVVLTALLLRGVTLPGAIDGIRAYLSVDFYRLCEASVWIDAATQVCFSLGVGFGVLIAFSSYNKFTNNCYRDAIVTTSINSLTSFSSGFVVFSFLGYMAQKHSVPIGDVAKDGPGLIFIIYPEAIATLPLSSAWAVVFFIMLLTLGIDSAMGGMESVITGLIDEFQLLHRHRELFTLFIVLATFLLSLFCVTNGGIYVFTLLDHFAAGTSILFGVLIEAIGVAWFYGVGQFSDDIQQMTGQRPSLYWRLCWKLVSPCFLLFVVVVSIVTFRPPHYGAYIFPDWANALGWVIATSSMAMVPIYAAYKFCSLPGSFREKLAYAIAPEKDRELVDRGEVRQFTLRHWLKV
# Experimental: Cell culture: HEK293 cells (ATCC) lines stably expressing hDAT or hDAT and hVMAT2 constructs were cultured at 37°C and 5% CO2 in DMEM with 10% FBS.
# Whole cell ^3H-dopamine (DA) uptake: Cells were plated into 48-well plates one day before uptake was performed. […] After incubation, 25 μl uptake buffer containing ^3H-DA and DA was added for a final concentration of 20 nM ^3H-DA and 1 μM DA. Cells were incubated at 37°C for 20 minutes or for the time indicated. Nonspecific uptake was determined in the presence of 10 μM nomifensine. Uptake was terminated by aspirating uptake buffer and washing each well twice with 0.5 ml ice-cold uptake buffer. Cells were lysed in 0.1 N NaOH and transferred to vials containing 3 ml scintillation cocktail. Radioactivity was quantitated using a Beckman LS6500 counter. Data were analyzed in Graph Pad Prism 5.0.
# D5, sequence (P21918 whole entry, looked up): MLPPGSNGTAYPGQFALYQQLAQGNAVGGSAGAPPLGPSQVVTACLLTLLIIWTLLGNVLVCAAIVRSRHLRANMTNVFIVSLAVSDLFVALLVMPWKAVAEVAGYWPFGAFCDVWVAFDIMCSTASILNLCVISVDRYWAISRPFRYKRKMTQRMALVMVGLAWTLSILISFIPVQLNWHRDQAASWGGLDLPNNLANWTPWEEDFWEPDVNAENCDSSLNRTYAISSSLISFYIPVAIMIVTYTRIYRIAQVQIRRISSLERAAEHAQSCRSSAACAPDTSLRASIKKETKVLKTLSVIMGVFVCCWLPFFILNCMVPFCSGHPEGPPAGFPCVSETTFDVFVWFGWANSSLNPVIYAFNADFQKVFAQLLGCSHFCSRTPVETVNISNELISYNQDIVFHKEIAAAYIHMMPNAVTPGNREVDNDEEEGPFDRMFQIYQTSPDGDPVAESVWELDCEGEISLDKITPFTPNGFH
smiles,measurement,setting,value
COc1cc2c3c(c1OC)-c1ccccc1C[C@H]3N(C)CC2 [nuciferine],In Vitro Affinity,D5,(neg) [^3H]SCH23390
same,Ki,5-HT1A,77 nM
same,Ki,5-HT7 [1],49.8 nM
same,Ki,5-HT6 [2],268 nM
same,Ki,5-HT1D,518 nM
same,Ki,α1A,1390 nM
same,Ki,α1B,2000 nM
same,Ki,α2C,693 nM
same,Ki,β1-AR,7150 nM
same,Ki,MOR,9550 nM
same,Ki,5-HT5A,1110 nM
same,EC50,5-HT7 [3],150 nM
same,Function Type,5-HT7 [3],Inverse agonist
same,IC50,5-HT7 [3],150 nM
same,Function Type,5-HT2A,Antagonist
same,IC50,5-HT2A; 5-HT2A antagonist activity,478 nM
same,EC50,5-HT2A; antagonist,478 nM
same,Function Type,5-HT2B,Antagonist
same,IC50,5-HT2B; 5-HT2B antagonist,1000 nM
same,EC50,5-HT2B; antagonist,1000 nM
same,EC50,5-HT6 [4],700 nM
same,Function Type,5-HT6 [4],Partial agonist
same,Emax,5-HT6 [4]; read-out: maximal effect,17.3%
same,Function Type,D4,agonist
same,EC50,D4; agonist,2000 nM
same,effect on DA uptake in isolated vesicles,hVMAT2,no effect
same,amphetamine induced hyperlocomotion,male C57BL/6J mice,significantly higher motor activity
same,PCP-disrupted PPI,C57BL/6J mice; 5 mg/kg i.p. before 6 mg/kg PCP,higher PPI than the PCP-vehicle groups
same,PCP-disrupted PPI,C57BL/6J mice; 10 mg/kg i.p. before 6 mg/kg PCP,rescued the PCP-disrupted PPI
same,crossing of the blood brain barrier,[5],shown to cross the blood brain barrier
same,EC50,hDAT,1.8 nM
